Earlier results as cited in US20090298852A1, “Pellet-form slow-release preparation for vertigo” (priority 2005, published 2009).

- solubility in water: approximately 2 mg/100 ml
SMILES: C(=C\c1ccccc1)/CN1CCN(C(c2ccccc2)c2ccccc2)CC1 [cinnarizine, 1-benzhydryl-4-trans-cinnamylpiperazine]
